Laboratory results taken from ChEMBL document CHEMBL1201862, “PubChem BioAssay data set” (2004).
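Values below derive from 48-hour exposures of cells grown in 96-well plates, with endpoints linearly interpolated between the two concentrations bracketing the appropriate inhibition level. Abbreviation: GI50, concentration required for 50% inhibition of growth.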 Activity calls are given as the source filed them. No stated cut-off is given here; in the data, active = GI50 up to about 1.1 µM and inactive = higher.

Assays:
Assay in all cases: NCI-60 cell line screen, 48 h
[1] = test system: HT-29
[2] = test system: OVCAR-3
[3] = test system: SF-295
[4] = test system: SNB-75
[5] = test system: UACC-257
[6] = test system: OVCAR-8
[7] = test system: LXFL 529
[8] = test system: HOP-62
[9] = test system: MOLT-4
[10] = test system: COLO 205
[11] = test system: CAKI-1
[12] = test system: ACHN
[13] = test system: HCT-15

SMILES	GI50 [1]	GI50 [2]	GI50 [3]	GI50 [4]	GI50 [5]	GI50 [6]	GI50 [7]	GI50 [8]	GI50 [9]	GI50 [10]	GI50 [11]	GI50 [12]	GI50 [13] [µM]
Cn1c2ccccc2c(=O)c2c([N+](=O)[O-])ccc(NCCN)c21	4.47 µM (inactive)	13.8 µM (inactive)	12.5 µM (inactive)	12.1 µM (inactive)	13.6 µM (inactive)	7.19 µM (inactive)	8.63 µM (inactive)	14 µM (inactive)	2.06 µM (inactive)	5.36 µM (inactive)	11.9 µM (inactive)	6.3 µM (inactive)	12.9
CCCNCC(=O)O[C@]1(CC)C(=O)OCc2c1cc1n(c2=O)Cc2cc3ccccc3nc2-1	0.274 µM (active)	0.457 µM (active)	< 0.01 µM (active)	0.0429 µM (active)	0.163 µM (active)	0.161 µM (active)	1.42 µM (inactive)	< 0.01 µM (active)	< 0.01 µM (active)	0.908 µM (active)	–	< 0.01 µM (active)	–
CSC(=S)N(C)c1nc(N(C)C)s[s+]1	> 100 µM (inactive)	–	> 100 µM (inactive)	> 100 µM (inactive)	> 100 µM (inactive)	> 100 µM (inactive)	> 100 µM (inactive)	> 100 µM (inactive)	> 100 µM (inactive)	–	> 100 µM (inactive)	> 100 µM (inactive)	> 100
O=C(O)CSc1nnc(/C=C/c2ccccc2)[nH]1	> 100 µM (inactive)	> 100 µM (inactive)	> 100 µM (inactive)	> 100 µM (inactive)	> 100 µM (inactive)	> 100 µM (inactive)	> 100 µM (inactive)	> 100 µM (inactive)	> 100 µM (inactive)	> 100 µM (inactive)	> 100 µM (inactive)	> 100 µM (inactive)	> 100
O=C1/C(=C/c2ccc(C(=O)O)cc2)CNC/C1=C\c1ccc(C(=O)O)cc1	> 100 µM (inactive)	> 100 µM (inactive)	> 100 µM (inactive)	> 100 µM (inactive)	> 100 µM (inactive)	> 100 µM (inactive)	> 100 µM (inactive)	> 100 µM (inactive)	> 100 µM (inactive)	> 100 µM (inactive)	–	> 100 µM (inactive)	> 100
